Assay results taken from patent US20260184662A1, “COMPOSITE OF ACID AND SALT, AND PREPARATION METHOD THEREFOR” (NANJING NUTRABUILDING BIO-TECH CO., LTD., priority 2022, published 2026).
Like-named read-outs stand apart in the source and are kept apart here.

Experiments:
[1] = Determination of moisture contents with KF moisture meter at different time points; assay type: physicochemical; settings: temperature 23° C., humidity 92.5%
Description: For R-3-hydroxybutyric acid, potassium R-3-hydroxybutyrate, mixture of R-3-hydroxybutyric acid and potassium R-3-hydroxybutyrate, and R-3-hydroxybutyric acid·potassium R-3-hydroxybutyrate complex of Example 1, under a certain condition, KF moisture meter was used to determine the moisture contents at different time points.
For 3-hydroxybutyric acid, potassium 3-hydroxybutyrate, mixture of 3-hydroxybutyric acid and potassium 3-hydroxybutyrate, and 3-hydroxybutyric acid·potassium 3-hydroxybutyrate complex of Example 7, under a certain condition, KF moisture meter was used to determine the moisture contents at different time points.
For S-3-hydroxybutyric acid, potassium S-3-hydroxybutyrate, mixture of S-3-hydroxybutyric acid and potassium S-3-hydroxybutyrate, and S-3-hydroxybutyric acid·potassium S-3-hydroxybutyrate complex of Example 13, under a certain condition, KF moisture meter was used to determine the moisture contents at different time points.
For R-3-hydroxybutyric acid, calcium R-3-hydroxybutyrate, mixture of R-3-hydroxybutyric acid and calcium R-3-hydroxybutyrate, and R-3-hydroxybutyric acid·calcium R-3-hydroxybutyrate complex of Example 19, under a certain condition, KF moisture meter was used to determine the moisture contents at different time points.
For 3-hydroxybutyric acid, calcium 3-hydroxybutyrate, mixture of 3-hydroxybutyric acid and calcium 3-hydroxybutyrate, and 3-hydroxybutyric acid·calcium 3-hydroxybutyrate complex of Example 25, under a certain condition, KF moisture meter was used to determine the moisture contents at different time points.
For S-3-hydroxybutyric acid, calcium S-3-hydroxybutyrate, mixture of S-3-hydroxybutyric acid and calcium S-3-hydroxybutyrate, and S-3-hydroxybutyric acid·calcium S-3-hydroxybutyrate complex of Example 31, under a certain condition, KF moisture meter was used to determine the moisture contents at different time points.
For R-3-hydroxybutyric acid, magnesium R-3-hydroxybutyrate, mixture of R-3-hydroxybutyric acid and magnesium R-3-hydroxybutyrate, and R-3-hydroxybutyric acid·magnesium R-3-hydroxybutyrate complex of Example 37, under a certain condition, KF moisture meter was used to determine the moisture contents at different time points.
For 3-hydroxybutyric acid, magnesium 3-hydroxybutyrate, mixture of 3-hydroxybutyric acid and magnesium 3-hydroxybutyrate, and 3-hydroxybutyric acid·magnesium 3-hydroxy butyrate complex of Example 43, under a certain condition, KF moisture meter was used to determine the moisture contents at different time points.
For S-3-hydroxybutyric acid, magnesium S-3-hydroxybutyrate, mixture of S-3-hydroxybutyric acid and magnesium S-3-hydroxybutyrate, and S-3-hydroxybutyric acid·magnesium S-3-hydroxybutyrate complex of Example 49, under a certain condition, KF moisture meter was used to determine the moisture contents at different time points.
For R-3-hydroxypentanoic acid, sodium R-3-hydroxypentanoate, mixture of R-3-hydroxypentanoic acid and sodium R-3-hydroxypentanoate, and R-3-hydroxypentanoic acid·sodium R-3-hydroxypentanoate complex of Example 55, under a certain condition, KF moisture meter was used to determine the moisture contents at different time points.
For 3-hydroxypentanoic acid, sodium 3-hydroxypentanoate, mixture of 3-hydroxypentanoic acid and sodium 3-hydroxypentanoate, and 3-hydroxypentanoic acid·sodium 3-hydroxypentanoate complex of Example 61, under a certain condition, KF moisture meter was used to determine the moisture contents at different time points.
For S-3-hydroxypentanoic acid, sodium S-3-hydroxypentanoate, mixture of S-3-hydroxypentanoic acid and sodium S-3-hydroxypentanoate, and S-3-hydroxypentanoic acid·sodium S-3-hydroxypentanoate complex of Example 67, under a certain condition, KF moisture meter was used to determine the moisture contents at different time points.

[2] = Stability of complexes at 30-80° C.; assay type: physicochemical
Description: For R-3-hydroxybutyric acid, potassium R-3-hydroxybutyrate, mixture of R-3-hydroxybutyric acid and potassium R-3-hydroxybutyrate, and R-3-hydroxybutyric acid·potassium R-3-hydroxybutyrate complex of Example 1, […]
For 3-hydroxybutyric acid, potassium 3-hydroxybutyrate, mixture of 3-hydroxybutyric acid and potassium 3-hydroxybutyrate, and 3-hydroxybutyric acid·potassium 3-hydroxybutyrate complex of Example 7, […]
For S-3-hydroxybutyric acid, potassium S-3-hydroxybutyrate, mixture of S-3-hydroxybutyric acid and potassium S-3-hydroxybutyrate, and S-3-hydroxybutyric acid·potassium S-3-hydroxybutyrate complex of Example 13, […]
For R-3-hydroxybutyric acid, calcium R-3-hydroxybutyrate, mixture of R-3-hydroxybutyric acid and calcium R-3-hydroxybutyrate, and R-3-hydroxybutyric acid·calcium R-3-hydroxybutyrate complex of Example 19, […]
For 3-hydroxybutyric acid, calcium 3-hydroxybutyrate, mixture of 3-hydroxybutyric acid and calcium 3-hydroxybutyrate, and 3-hydroxybutyric acid·calcium 3-hydroxybutyrate complex of Example 25, […]
For S-3-hydroxybutyric acid, calcium S-3-hydroxybutyrate, mixture of S-3-hydroxybutyric acid and calcium S-3-hydroxybutyrate, and S-3-hydroxybutyric acid·calcium S-3-hydroxybutyrate complex of Example 31, […]
For R-3-hydroxybutyric acid, magnesium R-3-hydroxybutyrate, mixture of R-3-hydroxybutyric acid and magnesium R-3-hydroxybutyrate, and R-3-hydroxybutyric acid·magnesium R-3-hydroxybutyrate complex of Example 37, […]
For 3-hydroxybutyric acid, magnesium 3-hydroxybutyrate, mixture of 3-hydroxybutyric acid and magnesium 3-hydroxybutyrate, and 3-hydroxybutyric acid·magnesium 3-hydroxybutyrate complex of Example 43, […]
For S-3-hydroxybutyric acid, magnesium S-3-hydroxybutyrate, mixture of S-3-hydroxybutyric acid and magnesium S-3-hydroxybutyrate, and S-3-hydroxybutyric acid·magnesium S-3-hydroxybutyrate complex of Example 49, […]
For R-3-hydroxypentanoic acid, sodium R-3-hydroxypentanoate, mixture of R-3-hydroxypentanoic acid and sodium R-3-hydroxypentanoate, and R-3-hydroxypentanoic acid·sodium R-3-hydroxypentanoate complex of Example 55, […]
For 3-hydroxypentanoic acid, sodium 3-hydroxypentanoate, mixture of 3-hydroxypentanoic acid and sodium 3-hydroxypentanoate, and 3-hydroxypentanoic acid·sodium 3-hydroxypentanoate complex of Example 61, […]
For S-3-hydroxypentanoic acid, sodium S-3-hydroxypentanoate, mixture of S-3-hydroxypentanoic acid and sodium S-3-hydroxypentanoate, and S-3-hydroxypentanoic acid·sodium S-3-hydroxypentanoate complex of Example 67, […]

Row | Structure (SMILES) | moisture content (%) ([1]; 30 min) | moisture content (%) ([1]; 1 h) | moisture content (%) ([1]; 2 h) | moisture content (%) ([1]; 4 h) | moisture content (%) ([1]; 6 h) | moisture content (%) ([1]; 7 h) | moisture content (%) ([1]; 11 h) | moisture content (%) ([1]; 22 h) | Stability [2] | Stability ([2]; 30° C.) | Stability ([2]; 50° C.) | Stability ([2]; 60° C.) | Stability ([2]; 70° C.) | Stability ([2]; 80° C.) | Stability ([2]; 40° C.)
1 | CC[C@@H](O)CC(=O)O.CC[C@@H](O)CC(=O)[O-].[Na+] [R-3-hydroxypentanoic acid·sodium R-3-hydroxypentanoate] | 0.45 | 0.85 | 1.63 | 2.72 | 4.08 | 4.49 | 7.21 | 14.54 | unchanged |  |  |  |  |  | 
2 | C[C@H](O)CC(=O)O [S-3-hydroxybutyric acid] | 1.23 | 2.28 | 4.05 | 6.32 | 9.53 | 10.62 | 17.08 | 32.95 |  | unchanged | melted | melted | melted | melted | 
3 | C[C@H](O)CC(=O)O.C[C@H](O)CC(=O)[O-].C[C@H](O)CC(=O)[O-].[Ca+2] [S-3-hydroxybutyric acid·calcium S-3-hydroxybutyrate] | 0.52 | 0.98 | 1.88 | 3.05 | 4.47 | 5.22 | 8.41 | 13.98 |  | unchanged | unchanged | unchanged |  | melted | unchanged
4 | C[C@H](O)CC(=O)O.C[C@H](O)CC(=O)[O-].C[C@H](O)CC(=O)[O-].[Mg+2] [S-3-hydroxybutyric acid·magnesium S-3-hydroxybutyrate] | 0.58 | 0.98 | 1.79 | 3.16 | 4.58 | 5.64 | 8.86 | 14.74 |  | unchanged | unchanged | unchanged |  | melted | unchanged
5 | C[C@H](O)CC(=O)O.C[C@H](O)CC(=O)[O-].[K+] [S-3-hydroxybutyric acid·potassium S-3-hydroxybutyrate] | 0.72 | 1.34 | 196 | 3.72 | 5.99 | 6.82 | 9.83 | 18.28 |  | unchanged | unchanged | unchanged |  | melted | unchanged
